In patent US3930838A, “S-benzyl-N,N-disec-butylthiocarbamate and its use as a rice field herbicide and a rice growth stimulant” (priority 1970, dated 1976):

Columns and labels:
rats = conditions: os, literature values; cited from earlier work
rice [1] = test: Outdoor comparison of rice stimulating action of M3432 with lower homologues and isomers (Example 11); assay type: in vivo; conditions: 21 days after sowing
Procedure: In the province of Pavia, a test was carried out with outdoor treatments in a loam soil, on rice plots having a 12 m^2 surface each.
Formulations of 20% M3432 in emulsifiable oil were compared with 20% formulations in emulsifiable oil of S-benzyl-N,N-diisopropyl thiocarbamate; S-benzyl-N,N-diisobutylthiocarbamate; and S-benzyl-N,N-din.butylthiocarbamate employing quantities of 4, 6 and 20 kg./ha.
For each treatment, the results were gathered on 20 plants 21 days after the sowing.

mice = conditions: os, literature values; cited from earlier work
rice [2] = conditions: Belgian Pat. No. 728,265; cited from earlier work

CCC(=O)Nc1ccc(Cl)c(Cl)c1 [Propanil, N(3,4-dichlorophenyl)-propionamide]
Acute toxicity LD50 (rats): 1384 mg/kg

CC(C)N(C(=O)SCc1ccccc1)C(C)C [S-benzyl-N,N-diisopropylthiocarbamate, S-benzyl-N,N-diisopropyl thiocarbamate]
Main roots (rice [1]; 4 kg./ha.): 3.45 No.
Secondary roots (rice [1]; 4 kg./ha.): 2.52 No.
Shoot (rice [1]; 4 kg./ha.): 5.36 cm.
Main roots (rice [1]; 6 kg./ha.): 3.67 No.
Secondary roots (rice [1]; 6 kg./ha.): 1.63 No.
Shoot (rice [1]; 6 kg./ha.): 5.44 cm.
Main roots (rice [1]; 20 kg./ha.): 2.79 No.
Secondary roots (rice [1]; 20 kg./ha.): 1.21 No.
Shoot (rice [1]; 20 kg./ha.): 4.03 cm.

Oc1c(Cl)c(Cl)c(Cl)c(Cl)c1Cl [Pentachlorophenol]
Acute toxicity LD50 (rats): 78 to 280 mg/kg

COC(=O)Nc1ccc(Cl)c(Cl)c1 [Swep, methyl-N-(3,4-dichlorophenyl)carbamate]
Acute toxicity LD50 (rats): 552 mg/kg

O=[N+]([O-])c1ccc(Oc2ccc(Cl)cc2Cl)cc1 [Nitrofen, 2,4-dichlorophenyl-4'-nitrophenylether]
Acute toxicity LD50 (rats): 3000 mg/kg

CCCCN(CCCC)C(=O)SCc1ccccc1 [S-benzyl-N,N-din.butyl-thiocarbamate, S-benzyl-N,N-din.butylthiocarbamate]
Main roots (rice [1]; 4 kg./ha.): 3.26 No.
Secondary roots (rice [1]; 4 kg./ha.): 1.78 No.
Shoot (rice [1]; 4 kg./ha.): 4.76 cm.
Main roots (rice [1]; 6 kg./ha.): 2.81 No.
Secondary roots (rice [1]; 6 kg./ha.): 1.94 No.
Shoot (rice [1]; 6 kg./ha.): 5.24 cm.
Main roots (rice [1]; 20 kg./ha.): 1.94 No.
Secondary roots (rice [1]; 20 kg./ha.): 2.05 No.
Shoot (rice [1]; 20 kg./ha.): 2.34 cm.

CCN(CC)C(=O)SCc1ccc(Cl)cc1 [Saturn, S(4-chlorobenzyl)N,N-diethylthiocarbamate]
Acute toxicity LD50 (mice): 560 mg/kg

CC(C)CN(CC(C)C)C(=O)SCc1ccccc1 [S-benzyl-N,N-diisobutylthiocarbamate]
Main roots (rice [1]; 4 kg./ha.): 3.21 No.
Secondary roots (rice [1]; 4 kg./ha.): 1.68 No.
Shoot (rice [1]; 4 kg./ha.): 5.25 cm.
Main roots (rice [1]; 6 kg./ha.): 2.76 No.
Secondary roots (rice [1]; 6 kg./ha.): 1.57 No.
Shoot (rice [1]; 6 kg./ha.): 4.21 cm.
Main roots (rice [1]; 20 kg./ha.): 2.59 No.
Secondary roots (rice [1]; 20 kg./ha.): 1.52 No.
Shoot (rice [1]; 20 kg./ha.): 3.96 cm.

CCN(CC)C(=O)SCc1ccccc1 [S-benzyl-N,N-diethylthiocarbamate]
Aggressiveness towards rice compared with ring-substituted monothiocarbamates (rice [2]): more aggressive towards the rice
